{
  "source": "patent US20140147381A1",
  "about": "“89ZR COMPOUNDS, TO INCLUDE SOMATOSTATIN, APPARATUS AND PRODUCTS COMPRISING SUCH COMPOUNDS, METHODS OF MAKING SAME, AND METHODS OF USING SAME FOR RADIO IMAGING AND/OR TREATMENT” (priority 2012, published 2014)",
  "origin": "cited, not measured here",
  "key": {"[1]": {"details": "small-animal PET"}, "[2]": {"system": "carcinoid tumors", "details": "carcinoid patients"}, "[3]": {"details": "in vitro"}},
  "data": [
    {"compound": "[Cl][89Zr]([Cl])([Cl])[Cl]", "note": "[[^89Zr]-chloride]", "values": [
      {"measurement": "site of accumulation", "setting": "[1]; free 89Zr(IV) ions", "result": "accumulate in the liver"}
    ]},
    {"compound": "Interferon", "values": [
      {"measurement": "biochemical response rate", "setting": "[2]", "result": 40, "unit": "%"},
      {"measurement": "tumor response rate", "setting": "[2]", "result": 12, "unit": "%"}
    ]},
    {"compound": "[^89Zr]-DFO", "values": [
      {"measurement": "stable with respect to ligand dissociation in human serum", "setting": "[3]", "result": "> 7", "unit": "days"},
      {"measurement": "excreted rapidly via the kidneys within", "setting": "[1]", "result": "< 20", "unit": "min"}
    ]}
  ]
}
